Our source for the IC50 values is patent US20250215029A1 (Recludix Pharma, Inc., priority 2022, published 2025).

Structures are written as SMILES. pIC50: −log10 of the molar value.

The target in the first assay is T1, pY641-STAT6 in PBMC (Homo sapiens, UniProt P42226).
T1 construct: Cryopreserved Peripheral Blood Mononuclear Cells (PBMC) are from AllCells; host or cells: cryopreserved PBMC
T1 sequence (P42226 1-847): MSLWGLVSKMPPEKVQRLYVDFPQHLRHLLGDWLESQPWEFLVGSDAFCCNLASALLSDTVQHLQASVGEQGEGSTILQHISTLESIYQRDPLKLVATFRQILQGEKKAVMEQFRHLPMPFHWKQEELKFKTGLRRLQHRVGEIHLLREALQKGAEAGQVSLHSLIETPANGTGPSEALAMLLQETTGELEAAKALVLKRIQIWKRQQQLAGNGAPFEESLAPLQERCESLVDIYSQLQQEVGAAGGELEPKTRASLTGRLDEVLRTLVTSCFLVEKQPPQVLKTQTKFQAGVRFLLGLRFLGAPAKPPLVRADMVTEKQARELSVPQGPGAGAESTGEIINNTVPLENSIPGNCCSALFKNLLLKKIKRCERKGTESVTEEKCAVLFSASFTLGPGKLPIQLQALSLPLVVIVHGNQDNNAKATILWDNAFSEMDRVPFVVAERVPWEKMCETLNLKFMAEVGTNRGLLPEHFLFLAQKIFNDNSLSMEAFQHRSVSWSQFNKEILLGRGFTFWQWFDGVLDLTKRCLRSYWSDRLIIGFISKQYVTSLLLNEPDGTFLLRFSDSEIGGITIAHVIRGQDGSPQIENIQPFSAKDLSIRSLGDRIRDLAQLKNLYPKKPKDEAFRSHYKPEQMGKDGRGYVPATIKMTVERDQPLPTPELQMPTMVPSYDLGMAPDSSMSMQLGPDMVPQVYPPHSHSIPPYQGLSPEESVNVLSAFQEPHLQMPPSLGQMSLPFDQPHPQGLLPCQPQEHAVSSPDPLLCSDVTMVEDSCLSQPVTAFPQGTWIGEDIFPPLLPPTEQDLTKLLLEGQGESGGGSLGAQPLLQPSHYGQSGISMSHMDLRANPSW
Nature of the assay: MSD-pSTAT-PBMC Assay (pSTAT6, IL-4 stimulated). The class given is cell-based. Particulars: PBMC, compound 3 hrs, then 1 ng/mL IL-4 for 10 min; Table 115; read-out: STAT6. The text has this: Cryopreserved Peripheral Blood Mononuclear Cells (PBMC) are from AllCells. Recombinant Human IL-4 and IL-6 are from Peprotech. Mouse monoclonal anti-STAT3 antibody, rabbit monoclonal anti-pY705-STAT3 antibody, rabbit monoclonal Anti-pY641-STAT6 antibody, and lysis buffer are from Cell Signaling Technology (CST). Mouse monoclonal anti-STAT6 antibody is from BioLegend. Assay plates, blocker, and anti-rabbit secondary antibody are from Meso Scale Discovery (MSD).
Cyropreserved PBMCs were thawed out and allowed to recover overnight in IMDM+10% heat-inactivated FBS prior to plating 50,000 (STAT3) or 25,000 (STAT6) cells per well in 96-well U-bottom tissue culture plates. Cells were treated with compound for 3 hrs, then stimulated with 10 ng/mL IL-6 (STAT3) or 1 ng/mL IL-4 (STAT6) for 10 min. Cells were then spun down and washed with ice-cold PBS prior to lysing the cell pellet with 1× lysis buffer (CST) with 1× HALT protease and phosphatase inhibitor cocktail (Thermo). Lysates were transferred to and incubated overnight at 4° C. with shaking in QuickPlex 96-well high bind assay plates (MSD) pre-coated overnight with 30 μL per well of 0.6 μg/mL mouse monoclonal anti-STAT3 antibody (STAT3) or 2 μg/mL mouse monoclonal anti-STAT6 antibody (STAT6) in 1× PBS, and pre-blocked for 1 hour with 3% Blocker-A (MSD). Captured protein in the assay plates were then washed and probed with 25 μL per well of […] rabbit monoclonal anti-pY705-STAT3 antibody (STAT3) or 0.18 μg/ml rabbit monoclonal Anti-pY641-STAT6 antibody (STAT6) in 1% Blocker-A for 1 hour at room temperature with shaking, then washed and probed with 25 ul per well of 1 ug/ml Sulfo-TAG Labeled Goat Anti-Rabbit Antibody (MSD) in 1% Blocker-A for 1 hour at room temperature with shaking. Assay plates were then washed and 150 μL of 1× Read Buffer-T (MSD) was added to each well prior to reading on an SQ120 MSD Plate Reader. Assay signal from each sample was subtracted by the signal from unstimulated control wells and normalized to DMSO control wells. IC50 values were calculated using Graph Pad Prism Dose-Response Nonlinear Regression with variable slope. For both pSTAT3 and pSTAT6 A=≤100 nM; B 100-1000 nM; C=>1000-3000 nM; D=>3 μM; and NT=Not Tested.
For the molecule `CCCOC(=O)[C@H](C)NP(=O)(Oc1ccccc1)[C@@H](F)c1ccc2sc(C(=O)N[C@H]3CCCC[C@H]4CC[C@@H](C(=O)N5C[C@H](c6cccc(Cl)c6)[C@@H](C#N)C56CC6)N4C3=O)cc2c1` (stereo partly drawn) [Compound 344], the pIC50 was above 7.00.

With `CCCOC(=O)[C@H](C)NP(=O)(Oc1ccccc1)[C@@H](F)c1ccc2sc(C(=O)N[C@H]3CCC[C@H]4CC[C@@H](C(=O)N5C[C@H](c6ccc(C)cc6)[C@@H](C#N)C56CC6)N4C3=O)cc2c1` (stereo partly drawn) [Compound 479], the pIC50 was above 7.00.

Staying with this assay, now noted: STAT6, PBMC, compound 3 hrs, then 1 ng/mL IL-4 for 10 min; Table 115.
Turning to `CC(C)OC(=O)[C@H](C)NP(=O)(Cc1ccc2ccc(C(=O)N[C@H]3CCCC[C@H]4CC[C@@H](C(=O)N5C[C@H](c6cc[nH]c(=O)c6)CC56CC6)N4C3=O)cc2c1)Oc1ccccc1` (stereo partly drawn) [Compound 423, isopropyl (((7-(((3S,6S,10aS)-5-oxo-3-((S)-6-(2-oxo-1,2-dihydropyridin-4-yl)-4-azaspiro[2.4]heptane-4-carbonyl)decahydropyrrolo[1,2-a]azocin-6-yl)carbamoyl)naphthalen-2-yl)methyl)(phenoxy)phosphoryl)-L-alaninate], the pIC50 was 6.00 to 7.00.

Consider `CCCOC(=O)[C@H](C)NP(=O)(Oc1ccccc1)C(F)c1ccc2ccc(C(=O)N[C@H]3CCCC[C@H]4CC[C@@H](C(=O)N5C[C@@H](C#N)[C@H](c6ccccc6)C5)N4C3=O)cc2c1` (single isomer, unassigned) [Compound 316], for which the pIC50 was above 7.00.

The molecule `COCCOC(=O)[C@H](COC)NP(=O)(Oc1ccccc1)[C@H](F)c1ccc2sc(C(=O)N[C@H]3CCC[C@H]4CC[C@@H](C(=O)N5C[C@H](c6ccccc6)[C@@H](C#N)C56CC6)N4C3=O)cc2c1` (stereo partly drawn) [Compound 348, 2-methoxyethyl N-(((S)-(2-(((3S,6S,9aS)-3-((6S,7R)-7-cyano-6-phenyl-4-azaspiro[2.4]heptane-4-carbonyl)-5-oxooctahydro-1H-pyrrolo[1,2-a]azepin-6-yl)carbamoyl)benzo [b]thiophen-5-yl)fluoromethyl) (phenoxy)phosphoryl)-O-methyl-L-serinate] gave a pIC50 above 7.00.

Take `CCCOC(=O)[C@H](C)NP(=O)(Oc1ccccc1)C(F)c1ccc2ccc(C(=O)N[C@H]3CCCC[C@H]4CC[C@@H](C(=O)N5CCC(c6ccn(C)c(=O)c6)C5)N4C3=O)cc2c1` (stereo partly drawn) [Compound 450, propyl ((fluoro(7-(((3S,6S,10aS)-3-(3-(1-methyl-2-oxo-1,2-dihydropyridin-4-yl)pyrrolidine-1-carbonyl)-5-oxodecahydropyrrolo [1,2-a]azocin-6-yl)carbamoyl)naphthalen-2-yl)methyl)(phenoxy)phosphoryl)-L-alaninate]: the pIC50 is 6.00 to 7.00.

Molecule `CCCOC(=O)[C@H](C)NP(=O)(Oc1ccccc1)C(F)c1ccc2sc(C(=O)N[C@H]3CCCC[C@H]4CC[C@@H](C(=O)N5C[C@H](c6cccnc6)CC56CC6)N4C3=O)cc2c1` (stereo in doubt) [Compound 459, propyl (((S)-fluoro(2-(((3S,6S,10aS)-5-oxo-3-((S)-6-(pyridin-3-yl)-4-azaspiro[2.4]heptane-4-carbonyl)decahydropyrrolo[1,2-a]azocin-6-yl)carbamoyl)benzo [b]thiophen-5-yl)methyl)(phenoxy)phosphoryl)-L-alaninate] gave a pIC50 above 7.00.

Turning to `CCCOC(=O)[C@H](C)NP(=O)(Oc1ccccc1)[C@@H](F)c1ccc2sc(C(=O)N[C@H]3CCCC[C@H]4CC[C@@H](C(=O)N5C(=O)N(c6cncc(C)c6)C(=O)C56CC6)N4C3=O)cc2c1` (stereo partly drawn) [Compound 303, propyl (((R)-fluoro(2-(((3S,6S,10aS)-3-(6-(5-methylpyridin-3-yl)-5,7-dioxo-4,6-diazaspiro [2.4]heptane-4-carbonyl)-5-oxodecahydropyrrolo [1,2-a]azocin-6-yl)carbamoyl)benzo [b]thiophen-5-yl)methyl)(phenoxy)phosphoryl)-L-alaninate], the pIC50 was 6.00 to 7.00.

Consider `CCCOC(=O)[C@H](C)NP(=O)(Oc1ccccc1)[C@H](F)c1ccc2sc(C(=O)N[C@H]3CC[C@H](N4CCC4)C[C@H]4CC[C@@H](C(=O)N5C[C@H](c6ccccc6)[C@@H](C#N)C56CC6)N4C3=O)cc2c1` (stereo partly drawn) [Compound 491, propyl (((S)-(2-(((3S,6S,9S,10aR)-9-(azetidin-1-yl)-3-((6S,7R)-7-cyano-6-phenyl-4-azaspiro[2.4]heptane-4-carbonyl)-5-oxodecahydropyrrolo [1,2-a]azocin-6-yl)carbamoyl)benzo [b]thiophen-5-yl)fluoromethyl) (phenoxy)phosphoryl)-L-alaninate], for which the pIC50 was above 7.00.

As for `CCCOC(=O)[C@H](C)NP(=O)(Oc1ccccc1)C(F)c1ccc2sc(C(=O)N[C@H]3CCCC[C@H]4CC[C@@H](C(=O)N5C(=O)N(c6ccn(C(C)C)c(=O)c6)C(=O)C56CC6)N4C3=O)cc2c1` (stereo partly drawn) [Compound 981, propyl ((fluoro(2-(((3S,6S,10aS)-3-(6-(1-isopropyl-2-oxo-1,2-dihydropyridin-4-yl)-5,7-dioxo-4,6-diazaspiro [2.4]heptane-4-carbonyl)-5-oxodecahydropyrrolo [1,2-a]azocin-6-yl)carbamoyl)benzo [b]thiophen-5-yl)methyl)(phenoxy)phosphoryl)-L-alaninate], the pIC50 is below 5.52.

Consider `CCCOC(=O)[C@H](C)NP(=O)(Oc1ccccc1)[C@@H](F)c1ccc2sc(C(=O)N[C@H]3CCCC[C@H]4CC[C@@H](C(=O)N5C[C@H](c6cncc(OC)c6)[C@@H](C#N)C56CC6)N4C3=O)cc2c1` (single isomer, unassigned) [Compound 372], for which the pIC50 was below 5.52.

With `CCCOC(=O)[C@H](C)NP(=O)(Oc1ccccc1)C(F)c1ccc2sc(C(=O)N[C@H]3CCCC[C@H]4CC[C@@H](C(=O)N5C[C@@H](C#N)[C@H](c6ccn(C)c(=O)c6)C5)N4C3=O)cc2c1` (single isomer, unassigned) [Compound 318], the pIC50 was below 5.52.

In the case of `CCCOC(=O)[C@H](C)NP(=O)(Oc1ccccc1)[C@@H](F)c1ccc2sc(C(=O)N[C@H]3CCC[C@H]4CC[C@@H](C(=O)N5C[C@H](c6cccnc6)[C@@H](C#N)C56CC6)N4C3=O)cc2c1` (single isomer, unassigned) [Compound 362], the pIC50 was above 7.00.

The molecule `CCCOC(=O)[C@H](C)NP(=O)(Oc1ccccc1)C(F)(F)c1ccc2ccc(C(=O)N[C@H]3CCCC[C@H]4CC[C@@H](C(=O)N5C[C@@H](c6cc[nH]c(=O)c6)CC56CC6)N4C3=O)cc2c1` (stereo partly drawn) [Compound 414, propyl ((difluoro(7-(((3S,6S,10aS)-5-oxo-3-((R)-6-(2-oxo-1,2-dihydropyridin-4-yl)-4-azaspiro[2.4]heptane-4-carbonyl)decahydropyrrolo[1,2-a]azocin-6-yl)carbamoyl)naphthalen-2-yl)methyl)(phenoxy)phosphoryl)-L-alaninate] showed a pIC50 of 6.00 to 7.00.

The same assay, now with this note: read-out: STAT6; PBMC, compound 3 hrs, then 1 ng/mL IL-4 for 10 min; Table 115.
With `CCCOC(=O)[C@H](C)NP(=O)(Oc1ccccc1)[C@@H](F)c1ccc2sc(C(=O)N[C@H]3CCC[C@H]4CC[C@@H](C(=O)N5C[C@@H](c6cccc(C)c6)[C@H](C#N)C56CC6)N4C3=O)cc2c1` (single isomer, unassigned) [Compound 342], the pIC50 is above 7.00.
